In test [1] the target is T1, human sirtuin 2 (SIRT2) (Homo sapiens, UniProt Q8IXJ6).
T1 sequence (Q8IXJ6 2-389): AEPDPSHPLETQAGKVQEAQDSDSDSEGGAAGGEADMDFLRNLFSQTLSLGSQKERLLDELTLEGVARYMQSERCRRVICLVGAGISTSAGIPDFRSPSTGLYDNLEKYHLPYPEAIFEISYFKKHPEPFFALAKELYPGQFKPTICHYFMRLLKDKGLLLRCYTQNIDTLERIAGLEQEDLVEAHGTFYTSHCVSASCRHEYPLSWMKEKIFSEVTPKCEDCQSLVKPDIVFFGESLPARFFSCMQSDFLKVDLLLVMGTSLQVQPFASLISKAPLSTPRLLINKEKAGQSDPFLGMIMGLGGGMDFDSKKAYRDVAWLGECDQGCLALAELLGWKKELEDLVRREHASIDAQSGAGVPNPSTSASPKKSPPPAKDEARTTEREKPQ
The test can be described thus: fluorogenic p2270 trypsin-coupled assay, recombinant human SIRT2. In kind it is biochemical. As to conditions: read-out: Inhibition% ^1/SIRT2-p2270 / @ 100 μM.

Test [2] deals with T1, human sirtuin 2 (SIRT2). Description: biochemical. The note with it: for inhibition at 10 µM: read-out: Inhibition% ^1/SIRT2-p2270 / @ 10 μM. More on the design: Fluorogenic p2270 (Ac-Glu-Thr-Asp-Lys(Dec)-AMC) trypsin-coupled assay on recombinant human SIRT2, ex 380/em 460 nm. The protocol:
This study tested the inhibitory activities of the synthesized compounds against recombinant human SIRT2 proteins using a fluorogenic substrate p2270(Ac-Glu-Thr-Asp-Lys(Dec)-AMC)-coupled trypsin assay. The assay buffer is 25 mM Tris–HCl pH 8.0, 150 mM NaCl, and 10% glycerol. The test compounds were added to 60 μL of reaction mixture containing SIRT2 enzymes (0.2 μM), and each compound was prepared in a 3-fold dilution series (300 μM–15 nM) with the final DMSO concentration < 1%. After incubation at 25 °C for 30 min, the reaction started by the addition of the substrate p2270 ([…]) and NAD^+([…]) at 25 °C. After 2 h, 50 μL 3~4 U/μL trypsin and 4 mM nicotinamide were added to terminate the reaction, followed by further incubation for 30 min at 25 °C. The fluorescence intensity was measured using a microplate reader (λex = 380 nm, λem = 460 nm). All determinations were performed in triplicate. The IC50 values were obtained using GraphPad Prism software as described previously. The enzyme activity assays were performed using a fluorogenic-based method, and Ac-Glu-Thr-Asp-Lys(Dec)-AMC, termed p2270, was used as the substrate. The SAR studies with all of the synthesized (5-phenylfuran-2-yl)methanamine derivatives (Table 1 and Table 2) were carried out. The compounds bearing various linkers or different substituents (A moiety) at 3- or 4-position of the [compound left out] of (5-phenylfuran-2-yl)methanamine scaffold (Table 1) were firstly investigated.

In test [3] the target is T1, human sirtuin 2 (SIRT2). Description: fluorogenic p2270 trypsin-coupled assay, recombinant human SIRT2. It is filed as biochemical.

The term IC50 denotes the concentration that inhibits the measured activity by half.

Regarding `O=C(NCc1ccc(-c2ccc(C(F)(F)F)cc2)o1)Nc1cccnc1` [compound 18, 1-(Pyridin-3-yl)-3-((5-(4-(trifluoromethyl)phenyl)furan-2-yl)methyl)urea], the inhibition at 100 µM in test [1] was determined as 40 ± 5%. Regarding `O=C(NCc1ccc(-c2ccc(C(=O)O)cc2)o1)Nc1ccccc1` [compound 21, 4-(5-((3-Phenylureido)methyl)furan-2-yl)benzoic Acid], the inhibition at 100 µM in test [1] stood at 46 ± 4%. The inhibition at 10 µM in test [2] was 33 ± 3%. As to `O=C(NCc1ccc(-c2ccc(C(=O)O)cc2)o1)Nc1cccc2ncccc12` [compound 20, 4-(5-((3-(quinolin-5-yl)ureido)methyl)furan-2-yl)benzoic acid], the inhibition at 100 µM in test [1] was found to be 63 ± 5%. In test [2], the inhibition at 10 µM was found to be 35 ± 3%. Turning to `O=C(NCc1ccc(-c2cc(Cl)ccc2Cl)o1)Nc1cccc2ncccc12` [compound 12, 1-((5-(2,5-Dichlorophenyl)furan-2-yl)methyl)-3-(quinolin-5-yl)urea], the inhibition at 100 µM in test [1] turned out to be 60 ± 3%. Moreover, in test [2], the inhibition at 10 µM came out at 33 ± 3%. `CCOC(=O)c1ccc(-c2ccc(CNC(=O)Nc3cccnc3)o2)cc1` [compound 17, Ethyl 4-(5-((3-(pyridin-3-yl)ureido)methyl)furan-2-yl)benzoate]: the inhibition at 100 µM in test [1] is 50 ± 4%.

As for `N#C/C(=C\c1ccc(-c2cc(Cl)ccc2Cl)o1)C(=O)Nc1cccc2ncccc12` [AGK2], the inhibition at 10 µM in test [2] came to 30 ± 5%. For the same compound, the inhibition at 100 µM in test [2] (read-out: Inhibition% ^1/SIRT2-p2270 / @ 100 μM) came out at 80 ± 6%.

With `O=C(NCc1ccc(-c2ccc(C(=O)O)cc2)o1)Nc1cccnc1` [compound 25, 4-(5-((3-(Pyridin-3-yl)ureido)methyl)furan-2-yl)benzoic Acid], the 50% inhibitory concentration (IC50) in test [3] worked out at 2470 nM. Consider `O=C(O)c1ccc(-c2ccc(CNC(=S)Nc3ccccc3)o2)cc1` [compound 22, 4-(5-((3-Phenylthioureido)methyl)furan-2-yl)benzoic Acid], for which the inhibition at 100 µM in test [1] was found to be 44 ± 5%. For the same compound, the inhibition at 10 µM in test [2] worked out at 23 ± 3%. On to `O=C(NCc1ccc(-c2ccc(C(=O)O)c(O)c2)o1)Nc1ccccc1` [compound 24, 2-Hydroxy-4-(5-((3-phenylureido)methyl)furan-2-yl)benzoic Acid], for which the inhibition at 100 µM in test [1] was 43 ± 2%.
